#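 Test compounds were applied to cells in 96-well plates for 48 hours at 5 doses. GI50: concentration for 50% inhibition of growth. Definition used: TGI = concentration required for complete inhibition of growth.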
# Experiments:
# Assay in all cases: NCI tumour cell line growth inhibition, 48 h
# HCT-15 colon = tested on: HCT-15 colon
# NCI-H23 lung = tested on: NCI-H23 lung
# PC-3 prostate = tested on: PC-3 prostate
# NCI/ADR-RES ovarian = tested on: NCI/ADR-RES ovarian
# UACC-257 melanoma = tested on: UACC-257 melanoma
# LOX IMVI melanoma = tested on: LOX IMVI melanoma
# HT29 colon = tested on: HT29 colon
# SK-MEL-2 melanoma = tested on: SK-MEL-2 melanoma
# COLO 205 colon = tested on: COLO 205 colon
# EKVX NSCLC = tested on: EKVX NSCLC
# MDA-N = tested on: MDA-N
# T-47D breast = tested on: T-47D breast
# SW-620 colon = tested on: SW-620 colon
# OVCAR-4 ovarian = tested on: OVCAR-4 ovarian
# A498 renal = tested on: A498 renal
# SF-539 CNS = tested on: SF-539 CNS
# MDA-MB-435 = tested on: MDA-MB-435
# DU-145 prostate = tested on: DU-145 prostate
# SNB-19 CNS = tested on: SNB-19 CNS
# SN12C renal = tested on: SN12C renal
# KM12 colon = tested on: KM12 colon
# M14 melanoma = tested on: M14 melanoma
# CCRF-CEM leukemia = tested on: CCRF-CEM leukemia
# NCI-H460 lung = tested on: NCI-H460 lung
# K-562 leukemia = tested on: K-562 leukemia
# SK-MEL-28 melanoma = tested on: SK-MEL-28 melanoma
# IGROV1 ovarian = tested on: IGROV1 ovarian
# SNB-75 CNS = tested on: SNB-75 CNS
# SK-MEL-5 melanoma = tested on: SK-MEL-5 melanoma
# CAKI-1 renal = tested on: CAKI-1 renal
# U251 CNS = tested on: U251 CNS
# UACC-62 melanoma = tested on: UACC-62 melanoma
# 786-0 renal = tested on: 786-0 renal
# SF-268 CNS = tested on: SF-268 CNS
# ACHN renal = tested on: ACHN renal
# HL-60(TB) leukemia = tested on: HL-60(TB) leukemia
# TK-10 renal = tested on: TK-10 renal
# NCI-H226 lung = tested on: NCI-H226 lung
# HS 578T breast = tested on: HS 578T breast
# RXF 393 renal = tested on: RXF 393 renal
# HCC-2998 colon = tested on: HCC-2998 colon
# OVCAR-3 ovarian = tested on: OVCAR-3 ovarian
# HCT-116 colon = tested on: HCT-116 colon
# MCF7 breast = tested on: MCF7 breast
# A549 NSCLC = tested on: A549 NSCLC
# MALME-3M melanoma = tested on: MALME-3M melanoma
# SF-295 CNS = tested on: SF-295 CNS
# OVCAR-8 ovarian = tested on: OVCAR-8 ovarian
# HOP-62 NSCLC = tested on: HOP-62 NSCLC
# UO-31 renal = tested on: UO-31 renal
# SK-OV-3 ovarian = tested on: SK-OV-3 ovarian
# NCI-H522 lung = tested on: NCI-H522 lung
# MDA-MB-231 breast = tested on: MDA-MB-231 breast
# MOLT-4 leukemia = tested on: MOLT-4 leukemia
# SR leukemia = tested on: SR leukemia
# RPMI-8226 leukemia = tested on: RPMI-8226 leukemia
# OVCAR-5 ovarian = tested on: OVCAR-5 ovarian
# HOP-92 NSCLC = tested on: HOP-92 NSCLC
# BT-549 breast = tested on: BT-549 breast
structure (smiles),measurement,setting,value
Cc1nnc(Nc2ccc(Cl)cc2)o1,TGI,HCT-15 colon,> 10 µM
same,TGI,NCI-H23 lung,> 10 µM
same,TGI,PC-3 prostate,> 10 µM
same,TGI,NCI/ADR-RES ovarian,> 10 µM
same,TGI,UACC-257 melanoma,> 10 µM
same,TGI,LOX IMVI melanoma,> 10 µM
same,TGI,HT29 colon,> 10 µM
same,TGI,SK-MEL-2 melanoma,> 10 µM
same,TGI,COLO 205 colon,> 10 µM
same,TGI,EKVX NSCLC,> 10 µM
same,TGI,MDA-N,> 10 µM
same,TGI,T-47D breast,> 10 µM
same,TGI,SW-620 colon,> 10 µM
same,TGI,OVCAR-4 ovarian,> 10 µM
same,TGI,A498 renal,> 10 µM
same,TGI,SF-539 CNS,> 10 µM
same,TGI,MDA-MB-435,> 10 µM
same,TGI,DU-145 prostate,> 10 µM
same,TGI,SNB-19 CNS,> 10 µM
same,TGI,SN12C renal,> 10 µM
same,TGI,KM12 colon,> 10 µM
same,TGI,M14 melanoma,> 10 µM
same,TGI,CCRF-CEM leukemia,> 10 µM
same,TGI,NCI-H460 lung,> 10 µM
same,TGI,K-562 leukemia,> 10 µM
same,TGI,SK-MEL-28 melanoma,> 10 µM
same,TGI,IGROV1 ovarian,> 10 µM
same,TGI,SNB-75 CNS,> 10 µM
same,TGI,SK-MEL-5 melanoma,> 10 µM
same,TGI,CAKI-1 renal,> 10 µM
same,TGI,U251 CNS,> 10 µM
same,TGI,UACC-62 melanoma,> 10 µM
same,TGI,786-0 renal,> 10 µM
same,TGI,SF-268 CNS,> 10 µM
same,TGI,ACHN renal,> 10 µM
same,TGI,HL-60(TB) leukemia,> 10 µM
same,TGI,TK-10 renal,> 10 µM
same,TGI,NCI-H226 lung,> 10 µM
same,TGI,HS 578T breast,> 10 µM
same,TGI,RXF 393 renal,> 10 µM
same,TGI,HCC-2998 colon,> 10 µM
same,TGI,OVCAR-3 ovarian,> 10 µM
same,TGI,HCT-116 colon,> 10 µM
same,TGI,MCF7 breast,> 10 µM
same,TGI,A549 NSCLC,> 10 µM
same,TGI,MALME-3M melanoma,> 10 µM
same,TGI,SF-295 CNS,> 10 µM
same,TGI,OVCAR-8 ovarian,> 10 µM
same,TGI,HOP-62 NSCLC,> 10 µM
same,TGI,UO-31 renal,> 10 µM
same,TGI,SK-OV-3 ovarian,> 10 µM
same,TGI,NCI-H522 lung,> 10 µM
same,TGI,MDA-MB-231 breast,> 10 µM
N=c1c2c(ncn1N)Oc1c(c(-c3ccccc3)nn1-c1ccccc1)C2c1ccc(Cl)cc1 (configuration not stated),TGI,HCT-15 colon,3.65 µM
same,TGI,NCI-H23 lung,3.31 µM
same,TGI,PC-3 prostate,3.01 µM
same,TGI,UACC-257 melanoma,3.71 µM
same,TGI,MOLT-4 leukemia,> 100 µM
same,TGI,HT29 colon,2.77 µM
same,TGI,SK-MEL-2 melanoma,3.1 µM
same,TGI,SR leukemia,> 100 µM
same,TGI,EKVX NSCLC,3.39 µM
same,TGI,MDA-N,3.86 µM
same,TGI,RPMI-8226 leukemia,> 100 µM
same,TGI,T-47D breast,4.99 µM
same,TGI,SW-620 colon,4.5 µM
same,TGI,OVCAR-4 ovarian,3.24 µM
same,TGI,A498 renal,4.32 µM
same,TGI,MDA-MB-435,3.46 µM
same,TGI,SNB-19 CNS,2.86 µM
same,TGI,SN12C renal,3.89 µM
same,TGI,KM12 colon,2.99 µM
same,TGI,M14 melanoma,3.18 µM
same,TGI,CCRF-CEM leukemia,> 100 µM
same,TGI,NCI-H460 lung,2.99 µM
same,TGI,K-562 leukemia,> 100 µM
same,TGI,IGROV1 ovarian,2.8 µM
same,TGI,SNB-75 CNS,2.83 µM
same,TGI,CAKI-1 renal,3.71 µM
same,TGI,UACC-62 melanoma,3.16 µM
same,TGI,ACHN renal,3.46 µM
same,TGI,HL-60(TB) leukemia,> 100 µM
same,TGI,TK-10 renal,3.47 µM
same,TGI,OVCAR-5 ovarian,2.93 µM
same,TGI,HCC-2998 colon,3.08 µM
same,TGI,OVCAR-3 ovarian,3.11 µM
same,TGI,HCT-116 colon,3.03 µM
same,TGI,MALME-3M melanoma,3.1 µM
same,TGI,HOP-62 NSCLC,3.02 µM
same,TGI,SK-OV-3 ovarian,3.37 µM
same,TGI,MDA-MB-231 breast,5.21 µM
CCCCCCN(CCCCCC)C(=N)c1ccnc2ccccc12,GI50,HCT-15 colon,3.82 µM
same,TGI,HCT-15 colon,16.6 µM
same,GI50,NCI-H23 lung,6.9 µM
same,TGI,NCI-H23 lung,23.4 µM
same,GI50,PC-3 prostate,5.81 µM
same,TGI,PC-3 prostate,20.2 µM
same,GI50,NCI/ADR-RES ovarian,5.84 µM
same,TGI,NCI/ADR-RES ovarian,21.1 µM
same,GI50,UACC-257 melanoma,2.37 µM
same,TGI,UACC-257 melanoma,5.62 µM
same,GI50,MOLT-4 leukemia,3.11 µM
same,TGI,MOLT-4 leukemia,17.2 µM
same,GI50,LOX IMVI melanoma,2.17 µM
same,TGI,LOX IMVI melanoma,6.33 µM
same,GI50,HT29 colon,0.835 µM
same,TGI,HT29 colon,7.88 µM
same,GI50,SK-MEL-2 melanoma,3.66 µM
same,TGI,SK-MEL-2 melanoma,12.2 µM
same,GI50,SR leukemia,1.74 µM
same,TGI,SR leukemia,5.34 µM
same,GI50,COLO 205 colon,1.45 µM
same,TGI,COLO 205 colon,2.97 µM
same,GI50,EKVX NSCLC,8.58 µM
same,TGI,EKVX NSCLC,22.9 µM
same,GI50,RPMI-8226 leukemia,2.93 µM
same,TGI,RPMI-8226 leukemia,11.6 µM
same,GI50,T-47D breast,3.04 µM
same,TGI,T-47D breast,13.2 µM
same,GI50,SW-620 colon,3.27 µM
same,TGI,SW-620 colon,17.8 µM
same,GI50,HOP-92 NSCLC,1.39 µM
same,TGI,HOP-92 NSCLC,9.22 µM
same,GI50,OVCAR-4 ovarian,5.98 µM
same,TGI,OVCAR-4 ovarian,19.6 µM
same,GI50,A498 renal,3.07 µM
same,TGI,A498 renal,16.6 µM
same,GI50,SF-539 CNS,5.12 µM
same,TGI,SF-539 CNS,17.5 µM
same,GI50,MDA-MB-435,3.21 µM
same,TGI,MDA-MB-435,14.7 µM
same,GI50,DU-145 prostate,13.5 µM
same,TGI,DU-145 prostate,26.6 µM
same,GI50,SNB-19 CNS,11 µM
same,TGI,SNB-19 CNS,25.7 µM
same,GI50,SN12C renal,7 µM
same,TGI,SN12C renal,21.6 µM
same,GI50,BT-549 breast,13.9 µM
same,TGI,BT-549 breast,27.3 µM
same,GI50,KM12 colon,3.95 µM
same,TGI,KM12 colon,15.2 µM
same,GI50,M14 melanoma,1.89 µM
same,TGI,M14 melanoma,4.56 µM
same,GI50,CCRF-CEM leukemia,3.17 µM
same,TGI,CCRF-CEM leukemia,18.4 µM
same,GI50,NCI-H460 lung,2.59 µM
same,TGI,NCI-H460 lung,12.7 µM
same,GI50,K-562 leukemia,2.37 µM
same,TGI,K-562 leukemia,8.35 µM
same,GI50,SK-MEL-28 melanoma,3.13 µM
same,TGI,SK-MEL-28 melanoma,8.6 µM
same,GI50,IGROV1 ovarian,2.83 µM
same,TGI,IGROV1 ovarian,13.4 µM
same,GI50,SNB-75 CNS,4.68 µM
same,TGI,SNB-75 CNS,17.3 µM
same,GI50,SK-MEL-5 melanoma,1.96 µM
same,TGI,SK-MEL-5 melanoma,3.45 µM
same,GI50,CAKI-1 renal,3.18 µM
same,TGI,CAKI-1 renal,15 µM
same,GI50,U251 CNS,3.31 µM
same,TGI,U251 CNS,10.9 µM
same,GI50,UACC-62 melanoma,4.88 µM
same,TGI,UACC-62 melanoma,19.6 µM
same,GI50,786-0 renal,2.82 µM
same,TGI,786-0 renal,12.5 µM
same,GI50,SF-268 CNS,13 µM
same,TGI,SF-268 CNS,26.5 µM
same,GI50,ACHN renal,4.23 µM
same,TGI,ACHN renal,16.3 µM
same,GI50,HL-60(TB) leukemia,2.93 µM
same,TGI,HL-60(TB) leukemia,16.8 µM
same,GI50,TK-10 renal,2.15 µM
same,TGI,TK-10 renal,9.67 µM
same,GI50,NCI-H226 lung,11.8 µM
same,TGI,NCI-H226 lung,26.7 µM
same,GI50,HS 578T breast,12 µM
same,TGI,HS 578T breast,47.1 µM
same,GI50,OVCAR-5 ovarian,9.64 µM
same,TGI,OVCAR-5 ovarian,21.7 µM
same,GI50,RXF 393 renal,4.57 µM
same,TGI,RXF 393 renal,15.5 µM
same,GI50,HCC-2998 colon,1.78 µM
same,TGI,HCC-2998 colon,3.54 µM
same,GI50,OVCAR-3 ovarian,10.3 µM
same,TGI,OVCAR-3 ovarian,22.4 µM
same,GI50,HCT-116 colon,1.94 µM
same,TGI,HCT-116 colon,14.1 µM
same,GI50,MCF7 breast,2.13 µM
same,TGI,MCF7 breast,5.53 µM
same,GI50,A549 NSCLC,11.9 µM
same,TGI,A549 NSCLC,25.9 µM
same,GI50,MALME-3M melanoma,2.25 µM
same,TGI,MALME-3M melanoma,5.64 µM
same,GI50,SF-295 CNS,1.39 µM
same,TGI,SF-295 CNS,13.4 µM
same,GI50,OVCAR-8 ovarian,10.4 µM
same,TGI,OVCAR-8 ovarian,24.1 µM
same,GI50,HOP-62 NSCLC,10.8 µM
same,TGI,HOP-62 NSCLC,24.2 µM
same,GI50,UO-31 renal,0.708 µM
same,TGI,UO-31 renal,13 µM
same,GI50,SK-OV-3 ovarian,12.3 µM
same,TGI,SK-OV-3 ovarian,24.7 µM
same,GI50,NCI-H522 lung,2.55 µM
same,TGI,NCI-H522 lung,11 µM
same,GI50,MDA-MB-231 breast,5.13 µM
same,TGI,MDA-MB-231 breast,21.3 µM
